Data taken from patent publication US4988687A, “Cephalosporin derivatives, and antibacterial agents” (priority 1986, dated 1991).
In brackets after ≈: the same amount, converted by molar mass. Like-named read-outs stand apart in the source and are kept apart here.

Assays:
K. oxytoca GN10650 = test: agar plate dilution method, MIC against K. oxytoca GN10650; assay type: cell-based; conditions: Klebsiella oxytoca, GN10650, 16 h, read-out: Minimum Inhibitory Concentration (MIC)
Procedure: (§1) The in vitro antibacterial activities of the compounds of the present invention against various microorganisms, were measured by the following agar plate dilution method. One platinum loopfull of each test microorganism incubated overnight in Mueller Hinton broth, was inoculated to Mueller Hinton agar (inoculum size: 10^6 CFU/ml) Such culture media containing various antibiotics in various concentrations were prepared After incubation at 37° C. for 16 hours, the minimum inhibitory concentrations (MIC: μg/ml) were measured. As comparative compounds, cefotaxime, oeftazidime and the compounds disclosed in Example 2 of Japanese Unexamined Patent Publication No. 215690/1985 e.g. sodium 7-[2-(2-aminothiazol-4-yl)-2-ethoxyiminoacetamido]-3-(1-carboxylatemethylpyridinio-4-yl)thiomethyl-3-cephem-4-carboxylate (hereinafter referred to simply as "Reference Example A") were employed.

S. aureus 209P NIHJ-JC1 = test: agar plate dilution method, MIC against S. aureus 209P NIHJ-JC1; assay type: cell-based; conditions: Staphylococcus aureus, read-out: Minimum Inhibitory Concentration (MIC)
Procedure: as §1

Ps. cepacia 23 = test: agar plate dilution method, MIC against Ps. cepacia 23; assay type: cell-based, Pseudomonas cepacia; conditions: Burkholderia cepacia; Ps. cepacia 23; 10^6 CFU/ml, 37° C., 16 hours; read-out: Minimum Inhibitory Concentration (MIC)
Procedure: as §1

K. pneumoniae No. 42 = test: agar plate dilution method, MIC against K. pneumoniae No. 42; assay type: cell-based; conditions: Klebsiella pneumoniae, read-out: Minimum Inhibitory Concentration (MIC)
Procedure: as §1

M. luteus ATCC9341 = test: agar plate dilution method, MIC against M. luteus ATCC9341; assay type: cell-based; conditions: Micrococcus luteus, read-out: Minimum Inhibitory Concentration (MIC)
Procedure: as §1

E. coli GN5482 = test: agar plate dilution method, MIC against E. coli GN5482; assay type: cell-based; conditions: Escherichia coli, read-out: Minimum Inhibitory Concentration (MIC)
Procedure: as §1

Ps. maltophilia GN 12873 = test: agar plate dilution method, MIC against Ps. maltophilia GN 12873; assay type: cell-based, Pseudomonas maltophilia; conditions: Stenotrophomonas maltophilia, read-out: Minimum Inhibitory Concentration (MIC)
Procedure: as §1

M. morganii GN5407 = test: agar plate dilution method, MIC against M. morganii GN5407; assay type: cell-based; conditions: Morganella morganii, read-out: Minimum Inhibitory Concentration (MIC)
Procedure: as §1

S. epidermidis IAM12012 = test: agar plate dilution method, MIC against S. epidermidis IAM12012; assay type: cell-based; conditions: Staphylococcus epidermidis, read-out: Minimum Inhibitory Concentration (MIC)
Procedure: as §1

E. cloacae Nek 39 = test: agar plate dilution method, MIC against E. cloacae Nek 39; assay type: cell-based; conditions: Enterobacter cloacae, read-out: Minimum Inhibitory Concentration (MIC)
Procedure: as §1

E. coli NIHJ JC2 = test: agar plate dilution method, MIC against E. coli NIHJ JC2; assay type: cell-based; conditions: Escherichia coli, read-out: Minimum Inhibitory Concentration (MIC)
Procedure: as §1

S. aureus BB5703 = test: agar plate dilution method, MIC against S. aureus BB5703; assay type: cell-based; conditions: Staphylococcus aureus, BB5703, 16 h, read-out: Minimum Inhibitory Concentration (MIC)
Procedure: as §1

E. coli CSH(RE45) = test: agar plate dilution method, MIC against E. coli CSH(RE45); assay type: cell-based; conditions: Escherichia coli, 16 h, read-out: Minimum Inhibitory Concentration (MIC)
Procedure: as §1

S. marcescens IAM 1184 = test: agar plate dilution method, MIC against S. marcescens IAM 1184; assay type: cell-based; conditions: Serratia marcescens, read-out: Minimum Inhibitory Concentration (MIC)
Procedure: as §1

E. coli CSH2 (RK1) = test: agar plate dilution method, MIC against E. coli CSH2 (RK1); assay type: cell-based; conditions: Escherichia coli, 16 h, read-out: Minimum Inhibitory Concentration (MIC)
Procedure: as §1

E. cloacae 963 = test: agar plate dilution method, MIC against E. cloacae 963; assay type: cell-based; conditions: read-out: Minimum Inhibitory Concentration (MIC)
Procedure: as §1

P. vulgaris No. 33 = test: agar plate dilution method, MIC against P. vulgaris No. 33; assay type: cell-based; conditions: Proteus vulgaris, read-out: Minimum Inhibitory Concentration (MIC)
Procedure: as §1

Ps. aeruginosa IFO3445 = test: agar plate dilution method, MIC against Ps. aeruginosa IFO3445; assay type: cell-based; conditions: Pseudomonas aeruginosa, read-out: Minimum Inhibitory Concentration (MIC)
Procedure: as §1

C. freundii GN346 = test: agar plate dilution method, MIC against C. freundii GN346; assay type: cell-based; conditions: Citrobacter freundii, read-out: Minimum Inhibitory Concentration (MIC)
Procedure: as §1

S. aureus JS1 = test: agar plate dilution method, MIC against S. aureus JS1; assay type: cell-based; conditions: Staphylococcus aureus, JS1, 16 h, read-out: Minimum Inhibitory Concentration (MIC)
Procedure: as §1

Ps. aeruginosa AK 109 = test: agar plate dilution method, MIC against Ps. aeruginosa AK 109; assay type: cell-based; conditions: Pseudomonas aeruginosa, AK109, 16 h, read-out: Minimum Inhibitory Concentration (MIC)
Procedure: as §1

K. pneumoniae PCI-602 = test: agar plate dilution method, MIC against K. pneumoniae PCI-602; assay type: cell-based; conditions: Klebsiella pneumoniae, PCI602, 16 h, read-out: Minimum Inhibitory Concentration (MIC)
Procedure: as §1

C. freundii GN346/16 = test: agar plate dilution method, MIC against C. freundii GN346/16; assay type: cell-based; conditions: Citrobacter freundii, read-out: Minimum Inhibitory Concentration (MIC)
Procedure: as §1

Ps. aeruginosa AKR17 = test: agar plate dilution method, MIC against Ps. aeruginosa AKR17; assay type: cell-based; conditions: Pseudomonas aeruginosa; Ps. aeruginosa AKR17; 10^6 CFU/ml, 37° C., 16 hours; read-out: Minimum Inhibitory Concentration (MIC)
Procedure: as §1

S. marcescens No. 16-2 = test: agar plate dilution method, MIC against S. marcescens No. 16-2; assay type: cell-based; conditions: Serratia marcescens, NO.162, 16 h, read-out: Minimum Inhibitory Concentration (MIC)
Procedure: as §1

A. calcoaceticus No. 4 = test: agar plate dilution method, MIC against A. calcoaceticus No. 4; assay type: cell-based; conditions: Acinetobacter calcoaceticus, NO.4, 16 h, read-out: Minimum Inhibitory Concentration (MIC)
Procedure: as §1

P. vulgaris HX-19 = test: agar plate dilution method, MIC against P. vulgaris HX-19; assay type: cell-based; conditions: Proteus vulgaris, HX19, 16 h, read-out: Minimum Inhibitory Concentration (MIC)
Procedure: as §1

SMILES: CC(C)(O/N=C(\C(=O)N[C@@H]1C(=O)N2C(C(=O)[O-])=C(C[n+]3ccccc3)CS[C@H]12)c1csc(N)n1)C(=O)O [Ceftazidime, ceftazidime, reference compound]
- MIC (K. oxytoca GN10650): 0.2 µg/mL (≈ 0.366 µM)
- MIC (S. aureus 209P NIHJ-JC1; 16 h): 6.25 µg/mL (≈ 11.4 µM)
- MIC (Ps. cepacia 23): 0.78 µg/mL (≈ 1.43 µM)
- MIC (K. pneumoniae No. 42; NO.42, 16 h): 0.39 µg/mL (≈ 0.714 µM)
- MIC (M. luteus ATCC9341; ATCC9341, 16 h): 0.78 µg/mL (≈ 1.43 µM)
- MIC (E. coli GN5482; GN5482, 16 h): 1.56 µg/mL (≈ 2.85 µM)
- MIC (Ps. maltophilia GN 12873; GN12873, 16 h): 100 µg/mL (≈ 183 µM)
- MIC (M. morganii GN5407; GN5407, 16 h): 0.1 µg/mL (≈ 0.183 µM)
- MIC (S. epidermidis IAM12012; IAM12012, 16 h): 3.12 µg/mL (≈ 5.71 µM)
- MIC (E. cloacae Nek 39; NEK39, 16 h): 3.12 µg/mL (≈ 5.71 µM)
- MIC (E. coli NIHJ JC2; NIHJJC2, 16 h): 0.2 µg/mL (≈ 0.366 µM)
- MIC (S. aureus BB5703): 12.5 µg/mL (≈ 22.9 µM)
- MIC (E. coli CSH(RE45)): 0.1 µg/mL (≈ 0.183 µM)
- MIC (S. marcescens IAM 1184; IAM1184, 16 h): 0.025 µg/mL (≈ 0.0457 µM)
- MIC (E. coli CSH2 (RK1)): 0.1 µg/mL (≈ 0.183 µM)
- MIC (E. cloacae 963; Enterobacter cloacae, 963, 16 h): 0.2 µg/mL (≈ 0.366 µM)
- MIC (P. vulgaris No. 33; NO.33, 16 h): 0.05 µg/mL (≈ 0.0915 µM)
- MIC (Ps. aeruginosa IFO3445; Ps. aeruginosa IFO3445, 10^6 CFU/ml, 37° C., 16 hours): 0.39 µg/mL (≈ 0.714 µM)
- MIC (C. freundii GN346; GN346, 16 h): 25 µg/mL (≈ 45.7 µM)
- MIC (S. aureus JS1): 25 µg/mL (≈ 45.7 µM)
- MIC (Ps. aeruginosa AK 109): 1.56 µg/mL (≈ 2.85 µM)
- MIC (K. pneumoniae PCI-602): < 0.006 µg/mL
- MIC (C. freundii GN346/16; GN346, 16 h): 0.2 µg/mL (≈ 0.366 µM)
- MIC (Ps. aeruginosa AKR17): > 100 µg/mL
- MIC (S. marcescens No. 16-2): 1.56 µg/mL (≈ 2.85 µM)
- MIC (A. calcoaceticus No. 4): 6.25 µg/mL (≈ 11.4 µM)
- MIC (P. vulgaris HX-19): 0.025 µg/mL (≈ 0.0457 µM)

SMILES: Nc1nc(C(=NOCc2ccc(O)c(O)c2)C(=O)NC2C(=O)N3C(C(=O)[O-])=C(CSc4cc[n+](CC(=O)O)cc4)CSC23)cs1 (stereo not drawn) [Example 4, 7-[2-(2-aminothiazol-4-yl)-2-(3,4-dihydroxybenzyloxyimino)acetamido]-3-(1-carboxymethylpyridinio-4-yl)thiomethyl-3-cephem-4-carboxylate (syn-isomer)]
- MIC (K. oxytoca GN10650): 0.78 µg/mL (≈ 1.16 µM)
- MIC (S. aureus 209P NIHJ-JC1; S. aureus 209P NIHJ-JC1, 10^6 CFU/ml, Mueller Hinton agar, 37° C., 16 hours): 0.39 µg/mL (≈ 0.58 µM)
- MIC (Ps. cepacia 23): 0.39 µg/mL (≈ 0.58 µM)
- MIC (K. pneumoniae No. 42; K. pneumoniae No. 42 (lactamase-producing strain), 10^6 CFU/ml, 37° C., 16 hours): 0.2 µg/mL (≈ 0.297 µM)
- MIC (M. luteus ATCC9341; M. luteus ATCC9341, 10^6 CFU/ml, 37° C., 16 hours): 0.39 µg/mL (≈ 0.58 µM)
- MIC (E. coli GN5482; E. coli GN5482 (lactamase-producing strain), 10^6 CFU/ml, 37° C., 16 hours): 0.39 µg/mL (≈ 0.58 µM)
- MIC (Ps. maltophilia GN 12873; GN12873, Ps. maltophilia GN 12873 (lactamase-producing strain), 10^6 CFU/ml, 37° C., 16 hours): > 100 µg/mL
- MIC (M. morganii GN5407; M. morganii GN5407 (lactamase-producing strain), 10^6 CFU/ml, 37° C., 16 hours): 0.1 µg/mL (≈ 0.149 µM)
- MIC (S. epidermidis IAM12012; S. epidermidis IAM12012, 10^6 CFU/ml, 37° C., 16 hours): 0.78 µg/mL (≈ 1.16 µM)
- MIC (E. cloacae Nek 39; NEK39, E. cloacae Nek 39 (lactamase-producing strain), 10^6 CFU/ml, 37° C., 16 hours): 0.78 µg/mL (≈ 1.16 µM)
- MIC (E. coli NIHJ JC2; NIHJJC2, E. coli NIHJ JC2, 10^6 CFU/ml, 37° C., 16 hours): 0.05 µg/mL (≈ 0.0743 µM)
- MIC (S. aureus BB5703): 3.12 µg/mL (≈ 4.64 µM)
- MIC (E. coli CSH(RE45)): 0.025 µg/mL (≈ 0.0372 µM)
- MIC (S. marcescens IAM 1184; IAM1184, S. marcescens IAM 1184, 10^6 CFU/ml, 37° C., 16 hours): 0.1 µg/mL (≈ 0.149 µM)
- MIC (E. coli CSH2 (RK1)): 0.05 µg/mL (≈ 0.0743 µM)
- MIC (E. cloacae 963; Enterobacter cloacae, E. cloacae 963, 10^6 CFU/ml, 37° C., 16 hours): 0.1 µg/mL (≈ 0.149 µM)
- MIC (P. vulgaris No. 33; P. vulgaris No. 33 (lactamase-producing strain), 10^6 CFU/ml, 37° C., 16 hours): 0.2 µg/mL (≈ 0.297 µM)
- MIC (Ps. aeruginosa IFO3445; IFO3445, 16 h): 3.12 µg/mL (≈ 4.64 µM)
- MIC (C. freundii GN346; C. freundii GN346 (lactamase-producing strain), 10^6 CFU/ml, 37° C., 16 hours): 6.25 µg/mL (≈ 9.29 µM)
- MIC (S. aureus JS1): 6.25 µg/mL (≈ 9.29 µM)
- MIC (Ps. aeruginosa AK 109): 1.56 µg/mL (≈ 2.32 µM)
- MIC (K. pneumoniae PCI-602): < 0.006 µg/mL
- MIC (C. freundii GN346/16; C. freundii GN346/16, 10^6 CFU/ml, 37° C., 16 hours): 0.2 µg/mL (≈ 0.297 µM)
- MIC (Ps. aeruginosa AKR17): > 100 µg/mL
- MIC (S. marcescens No. 16-2): 6.25 µg/mL (≈ 9.29 µM)
- MIC (A. calcoaceticus No. 4): 1.56 µg/mL (≈ 2.32 µM)
- MIC (P. vulgaris HX-19): 0.025 µg/mL (≈ 0.0372 µM)
